Data taken from patent US10329305B2, “Amorphous solid form of a BET protein inhibitor” (Incyte Corporation, priority 2015, dated 2019).
Converted amounts (≈) assume the structure as drawn.

Columns and labels:
Type in all cases: physicochemical
[1] = Glass transition temperature by modulated DSC (MDSC); details: ramp rate 2° C./min, 10-150° C.
Description: The glass transition temperature (Tg) was determined to be 105.8° C. by modulated DSC (MDSC) using TA Instruments Differential Scanning calorimetry, Model Q2000 with autosampler. The MDSC instrument conditions were as follows: modulation temperature amplitude: ±1° C.; modulation: 60 second; ramp rate: 2° C./min; temperature range: 10-150° C.; Tzero aluminum sample pan and lid; and nitrogen gas flow at 50 mL/min.

[2] = Stability of amorphous Compound 1-(S) under elevated temperature and humidity (Karl-Fischer water content, HPLC/UV purity, XRPD); details: for Solid Form (XRPD) / Purity 220 nm / Purity 254 nm / Water content: open vial; for Purity 220 nm / Purity 254 nm: HPLC/UV; for Water content: Karl-Fischer
Description: Table 1 indicates the conditions/time to which the amorphous form was subjected and provides the measured water content (Karl-Fischer analysis) and purity (by HPLC/UV). The HPLC/UV instrument was Agilent HPLC 1100 with an Agilent Zorbax SB-C18, 3.5 μm, 4.6×150 mm column. The HPLC conditions were as follows: column temperature: 40° C.; mobile phase A (MPA): 0.05% (v/v) trifluoroacetic acid (TFA) in water; mobile phase B (MPB): 0.05% (v/v) TFA in acetonitrile; and flow rate: 1 mL/min.
The gradient conditions were as follows: […]

[3] = Formulation of amorphous Compound 1-(S): solubility in vehicles; details: for solubility: aqueous with cosolvent or surfactant or cyclodextrin, thermodynamic from solid
Description: Amorphous Compound 1-(S) was formulated as described in the table below. Table 2 indicates the target concentration, final pH, solubility, and some observation of the resulting formulations.

Question: Which “glass transition temperature (Tg)” value [1] does the source give for `Cc1noc(C)c1-c1ccc2[nH]c(=O)n3c2c1OC[C@@H]3c1ccccn1` [Amorphous Compound 1-(S), (4S)-7-(3,5-dimethylisoxazol-4-yl)-4-pyridin-2-yl-4,5-dihydroimidazo[1,5,4-de][1,4]benzoxazin-2(1H)-one] here?
Answer: Its value is 105.8 °C.

Question: And the “Solid Form (XRPD)” value ([2]; 40° C./75% RH, 0 weeks)?
Answer: The value was “Amorphous”.

Question: And the “Purity 220 nm” value ([2]; 40° C./75% RH, 0 weeks)?
Answer: Its value is 98.22%.

Question: What about the “Purity 254 nm” value ([2]; 40° C./75% RH, 0 weeks) of the same molecule?
Answer: The value was 97.10%.

Question: What about the Water content ([2]; 40° C./75% RH, 0 weeks) of the same molecule?
Answer: The Water content was 1.67%.

Question: What about the “Purity 220 nm” value ([2]; 40° C./75% RH, 1 week) of the same molecule?
Answer: The value was 98.22%.

Question: And the “Purity 254 nm” value ([2]; 40° C./75% RH, 1 week)?
Answer: Its value is 97.10%.

Question: And the Water content ([2]; 40° C./75% RH, 1 week)?
Answer: Its Water content is 3.39%.

Question: What about the “Solid Form (XRPD)” value ([2]; 40° C./75% RH, 2 weeks) of the same molecule?
Answer: The value was “Amorphous”.

Question: What about the “Purity 220 nm” value ([2]; 40° C./75% RH, 2 weeks) of the same molecule?
Answer: Its value is 98.18%.

Question: And the “Purity 254 nm” value ([2]; 40° C./75% RH, 2 weeks)?
Answer: Its value is 97.10%.

Question: What about the Water content ([2]; 40° C./75% RH, 2 weeks) of the same molecule?
Answer: Its Water content is 2.64%.

Question: And the “Solid Form (XRPD)” value ([2]; 50° C., 0 weeks)?
Answer: Its value is “Amorphous”.

Question: And the “Purity 220 nm” value ([2]; 50° C., 0 weeks)?
Answer: Its value is 98.22%.

Question: What about the “Purity 254 nm” value ([2]; 50° C., 0 weeks) of the same molecule?
Answer: Its value is 97.10%.

Question: And the Water content ([2]; 50° C., 0 weeks)?
Answer: The Water content was 1.67%.

Question: What about the “Purity 220 nm” value ([2]; 50° C., 1 week) of the same molecule?
Answer: The value was 98.12%.

Question: And the “Purity 254 nm” value ([2]; 50° C., 1 week)?
Answer: Its value is 97.11%.

Question: What about the Water content ([2]; 50° C., 1 week) of the same molecule?
Answer: Its Water content is 0.69%.

Question: And the “Solid Form (XRPD)” value ([2]; 50° C., 2 weeks)?
Answer: The value was “Amorphous”.

Question: What about the “Purity 220 nm” value ([2]; 50° C., 2 weeks) of the same molecule?
Answer: Its value is 98.23%.

Question: And the “Purity 254 nm” value ([2]; 50° C., 2 weeks)?
Answer: Its value is 97.11%.

Question: And the Water content ([2]; 50° C., 2 weeks)?
Answer: The Water content was 0.43%.

Question: And the physical stability ([2]; elevated temperature and humidity)?
Answer: The physical stability was “physically stable”.

Question: What about the Observations ([3]; 0.5% MC in 50 mM citrate, pH 3.0, target concentration 0.5 mg/mL) of the same molecule?
Answer: The Observations was “solution”.

Question: And the Observations ([3]; 0.5% MC in 50 mM citrate, pH 3.0, target concentration 2.5 mg/mL)?
Answer: The Observations was “suspension”.

Question: What about the Observations ([3]; 0.5% MC in water, target concentration 0.5 mg/mL) of the same molecule?
Answer: The Observations was “solution”.

Question: And the Observations ([3]; 0.5% MC in water, target concentration 2.5 mg/mL)?
Answer: Its Observations is “suspension”.

Question: What about the Observations ([3]; 10% TPGS in 50 mM citrate, pH 3.0, target concentration 2.5 mg/mL) of the same molecule?
Answer: The Observations was “solution”.

Question: What about the solubility ([3]; 0.5% MC in 50 mM citrate, pH 3.0, target concentration 0.5 mg/mL, final pH 3.00) of the same molecule?
Answer: Its solubility is greater than 500 µg/mL.

Question: And the solubility ([3]; 0.5% MC in 50 mM citrate, pH 3.0, target concentration 2.5 mg/mL, final pH 3.03)?
Answer: The solubility was 1150 µg/mL (≈ 3300 µM).

Question: What about the solubility ([3]; 0.5% MC in water, target concentration 0.5 mg/mL, final pH 6.76) of the same molecule?
Answer: Its solubility is greater than 500 µg/mL.

Question: What about the solubility ([3]; 0.5% MC in water, target concentration 2.5 mg/mL, final pH 7.87) of the same molecule?
Answer: The solubility was 842 µg/mL (≈ 2420 µM).

Question: And the solubility ([3]; 10% TPGS in 50 mM citrate, pH 3.0, target concentration 2.5 mg/mL, final pH 3.07)?
Answer: The solubility was greater than 2500 µg/mL.
